According to patent US20090029992A1, “SUBSTITUTED PYRAZOLE COMPOUNDS” (priority 2007, published 2009):
pIC50: −log10 of the molar value.

How the values were obtained:
HCT116 cells = experiment: Whole cell cytotoxicity assay, Sulforhodamine B; format: cell-based; conditions: Homo sapiens, HCT-116, HCT116, 96 hours incubation, SRB; for pIC50: read-out: IC50 values in this assay (HCT116 cell growth); for GI50: read-out: GI50 HCT116 cell growth
How it was run: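 HCT116 cells (500/well) in DMEM/10% FBS/2 mM glutamine were preincubated 24 h, then exposed to compound for 96 h at 37 °C, 5% CO2, in duplicate. Cells were fixed with TCA and stained with sulforhodamine B (A570). GI50, TGI and LC50 were derived relative to a time-zero plate and an untreated control.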

recombinant Aurora A = biological target: T1, recombinant Aurora A (Homo sapiens, UniProt O14965); experiment: Aurora A (Aurora 2) inhibition assay, Z'-Lyte kinase assay; format: biochemical; conditions: ATP 10 μM, 1 h
T1 construct: purchased Upstate, Lake Placid, N.Y
T1 sequence (O14965 1-403): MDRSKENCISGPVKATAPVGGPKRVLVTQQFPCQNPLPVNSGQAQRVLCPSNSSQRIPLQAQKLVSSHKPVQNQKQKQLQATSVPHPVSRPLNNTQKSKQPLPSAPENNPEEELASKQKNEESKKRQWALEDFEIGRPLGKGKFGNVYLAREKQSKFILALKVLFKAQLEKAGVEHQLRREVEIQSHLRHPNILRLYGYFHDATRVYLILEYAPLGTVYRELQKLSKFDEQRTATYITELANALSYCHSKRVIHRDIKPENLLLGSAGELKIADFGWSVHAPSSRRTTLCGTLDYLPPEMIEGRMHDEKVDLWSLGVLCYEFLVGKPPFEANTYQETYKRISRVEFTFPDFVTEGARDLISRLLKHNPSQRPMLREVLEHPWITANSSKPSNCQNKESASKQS
How it was run: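 Z'-Lyte FRET assay: Aurora A (200-500 ng/mL final), Ser/Thr 1 peptide (2 μM) and ATP (10 μM) in 50 mM HEPES pH 7.5, 10 mM MgCl2, 5 mM EGTA, 0.05% Brij-35, 2 mM DTT, 1 h at room temperature. Coumarin/fluorescein emission ratio converted to percent phosphorylation; dose-response curves plotted.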

[1] = group with IC50 greater than 100 nM

Row | pIC50 (recombinant Aurora A) | pIC50 (recombinant Aurora A; [1]) | SMILES | pIC50 (HCT116 cells) | GI50 (HCT116 cells) [nM]
1 | ≥ 7.00 | – | Cc1cc(Nc2cc(N3CCN(C)CC3)nc(-c3ccc(C(C)(C)C)cc3)n2)n[nH]1 [Compound 82, 2-(4-tert-butylphenyl)-N-(5-methyl-1H-pyrazol-3-yl)-6-(4-methylpiperazin-1-yl)pyrimidin-4-amine] | 5.00 to 6.00 | –
2 | ≥ 7.00 | – | Cc1cc(Nc2cc(N3CCN(C)CC3)nc(-c3ccc(N(C)C)cc3)n2)n[nH]1 [Compound 85, 2-(4-(dimethylamino)prenyl)-N-(b-methyl-1H-pyrazol-3-yl)-6-(4-methylpiperazin-1-yl)pyrimidin-4-amine] | – | ≤ 1000
3 | ≥ 7.00 | – | Cc1cc(Nc2cc(N3CCN(C)CC3)nc(-c3cccc(N(C)C)c3)n2)n[nH]1 [Compound 86, 2-(3-(dimethylamino)phenyl)-N-(5-methyl-1H-pyrazol-3-yl)-b-(4-methylpiperazin-1-yl)pyrimidin-4-amine] | – | ≤ 1000
4 | ≥ 7.00 | – | Cc1cc(Nc2cc(N3CCN(C)CC3)nc(-c3cccnc3)n2)n[nH]1 [Compound 89, N-(5-methyl-1H-pyrazol-3-yl)-6-(4-methylpiperazin-1-yl)-2-(pyridin-3-yl)pyrimidin-4-amine] | 5.00 to 6.00 | –
5 | ≥ 7.00 | – | Cc1cc(Nc2cc(N3CCN(C)CC3)nc(-c3cccc(C(F)(F)F)c3)n2)n[nH]1 [Compound 101, N-(5-methyl-1H-pyrazol-3-yl)-6-(4-methylpiperazin-1-yl)-2-(3-(trifluoromethyl)phenyl)pyrimidin-4-amine] | 5.00 to 6.00 | –
6 | ≥ 7.00 | – | COCCN(C)c1cc(Nc2cc(C)[nH]n2)nc(-c2cccc(N(C)C)c2)n1 [Compound 119, 2-(3-(dimethylamino)phenyl)-N^4-(2-methoxyethyl)-N^4-methyl-N^6-(5-methyl-1H-pyrazol-3-yl)pyrimidine-4,6-diamine] | 5.00 to 6.00 | –
7 | ≥ 7.00 | – | Cc1cc(Nc2cc(NC3CCOCC3)nc(-c3ccc4c(c3)OCO4)n2)n[nH]1 [Example 132, 2-(benzo[d][1,3]dioxol-5-yl)-N^4-(5-methyl-1H-pyrazol-3-yl)-N^6-(tetrahydro-2H-pyran-4-yl)pyrimidine-4,6-diamine] | 5.00 to 6.00 | –
8 | ≥ 7.00 | – | Cc1cc(Nc2cc(N3CCN(C)CC3)nc(-c3cccc4ccccc34)n2)n[nH]1 [Example 134, N-(5-methyl-1H-pyrazol-3-yl)-6-(4-methylpiperazin-1-yl)-2-(naphthalen-1-yl)pyrimidin-4-amine] | 5.00 to 6.00 | –
9 | ≥ 7.00 | – | Cc1cc(Nc2cc(N3CCN(C)CC3)nc(-c3ccc4ccccc4c3)n2)n[nH]1 [Example 135, N-(5-methyl-1H-pyrazol-3-yl)-6-(4-methylpiperazin-1-yl)-2-(naphthalen-2-yl)pyrimidin-4-amine] | – | ≤ 1000
10 | ≥ 7.00 | – | COCCN(C)c1cc(Nc2cc(C)[nH]n2)nc(-c2ccc3c(c2)OCO3)n1 [Example 153, 2-(benzo[d][1,3]dioxol-5-yl)-N^4-(2-methoxyethyl)-N^4-methyl-N^6-(5-methyl-1H-pyrazol-3-yl)pyrimidine-4,6-diamine] | 5.00 to 6.00 | –
11 | ≥ 7.00 | – | Cc1cc(Nc2cc(N3CCN(C)CC3)nc(-c3cc4cc(NS(=O)(=O)C5CC5)ccc4o3)n2)n[nH]1 [Example 155, N-(2-(4-(5-methyl-1H-pyrazol-3-ylamino)-6-(4-methylpiperazin-1-yl)pyrimidin-2-yl)benzofuran-5-yl)cyclopropanesulfonamide] | – | ≤ 1000
12 | ≥ 7.00 | – | Cc1cc(Nc2cc(NC3CCOCC3)nc(-c3cc4cc(NS(=O)(=O)C5CC5)ccc4o3)n2)n[nH]1 [Example 156, N-(2-(4-(5-methyl-1H-pyrazol-3-ylamino)-6-(tetrahydro-2H-pyran-4-ylamino)pyrimidin-2-yl)benzofuran-5-yl)cyclopropanesulfonamide] | 5.00 to 6.00 | –
13 | – | ≥ 6.00 | Cc1cc(Nc2cc(NC3CCOCC3)nc(-c3ccc(-c4ccccc4)cc3)n2)n[nH]1 [Example 158, 2-(biphenyl-4-yl)-N^4-(5-methyl-1H-pyrazol-3-yl)-N^6-(tetrahydro-2H-pyran-4-yl)pyrimidine-4,6-diamine] | 5.00 to 6.00 | –
14 | ≥ 7.00 | – | Cc1cc(Nc2cc(NC3CCOCC3)nc(-c3cccc(-c4ccccc4)c3)n2)n[nH]1 [Example 159, 2-(biphenyl-3-yl)-N^4-(5-methyl-1H-pyrazol-3-yl)-N^6-(tetrahydro-2H-pyran-4-yl)pyrimidine-4,6-diamine] | 5.00 to 6.00 | –
15 | – | ≥ 6.00 | Cc1cc(Nc2cc(N3CCN(C)CC3)nc(-c3ccc(C#N)cc3)n2)n[nH]1 [Example 160, 4-(4-(5-methyl-1H-pyrazol-3-ylamino)-6-(4-methylpiperazin-1-yl)pyrimidin-2-yl)benzonitrile] | – | ≤ 1000
16 | – | ≥ 6.00 | Cc1cc(Nc2cc(N3CCN(C)CC3)nc(-c3ccc([N+](=O)[O-])cc3)n2)n[nH]1 [Example 164, N-(5-methyl-1H-pyrazol-3-yl)-6-(4-methylpiperazin-1-yl)-2-(4-nitrophenyl)pyrimidin-4-amine] | 5.00 to 6.00 | –
17 | ≥ 7.00 | – | Cc1cc(Nc2cc(N3CCN(C)CC3)nc(-c3ccc(F)c(F)c3)n2)n[nH]1 [Example 168, 2-(3,4-difluorophenyl)-N-(5-methyl-1H-pyrazol-3-yl)-6-(4-methylpiperazin-1-yl)pyrimidin-4-amine] | – | ≤ 1000
18 | ≥ 7.00 | – | Cc1cc(C)cc(-c2nc(Nc3cc(C)[nH]n3)cc(N3CCN(C)CC3)n2)c1 [Example 169, 2-(3,5-dimethylphenyl)-N-(5-methyl-1H-pyrazol-3-yl)-6-(4-methylpiperazin-1-yl)pyrimidin-4-amine] | – | ≤ 1000
19 | ≥ 7.00 | – | COCCN(C)c1cc(Nc2cc(C)[nH]n2)nc(-c2ccccc2)n1 [Example 171, N^4-(2-methoxyethyl)-N^4-methyl-N^6-(5-methyl-1H-pyrazol-3-yl)-2-phenyl pyrimidine-4,6-diamine] | 5.00 to 6.00 | –
20 | – | ≥ 6.00 | CCc1ccccc1-c1nc(Nc2cc(C)[nH]n2)cc(NC2CCOCC2)n1 [Example 174, 2-(2-ethylphenyl)-N^4-(5-methyl-1H-pyrazol-3-yl)-N^6-(tetrahydro-2H-pyran-4-yl)pyrimidine-4,6-diamine] | 5.00 to 6.00 | –
21 | – | ≥ 6.00 | CCc1ccccc1-c1nc(Nc2cc(C)[nH]n2)cc(N2CCN(C)CC2)n1 [Example 175, 2-(2-ethylphenyl)-N-(5-methyl-1H-pyrazol-3-yl)-6-(4-methylpiperazin-1-yl)pyrimidin-4-amine] | 5.00 to 6.00 | –
22 | – | ≥ 6.00 | Cc1cc(Nc2cc(N3CCN(C)CC3)nc(-c3ccc4c(c3)OC(F)(F)O4)n2)n[nH]1 [Example 178, 2-(2,2-difluorobezo[d][1,3]dioxol-5-yl)-N-(5-methyl-1H-pyrazol-3-yl)-6-(4-methylpiperazin-1-yl)pyrimidin-4-amine] | – | ≤ 1000
23 | – | ≥ 6.00 | Cc1cc(Nc2cc(N3CCN(C)CC3)nc(-c3cccc(C)c3C)n2)n[nH]1 [Example 179, 2-(2,3-dimethylphenyl)-N-(5-methyl-1H-pyrazol-3-yl)-6-(4-methylpiperazin-1-yl)pyrimidin-4-amine] | – | ≤ 1000
24 | – | ≥ 6.00 | COCCN(C)c1cc(Nc2cc(C)[nH]n2)nc(-c2cc(F)ccc2F)n1 [Example 184, 2-(2,5-difluorophenyl)-N^4-(2-methoxyethyl)-N^4-methyl-N^6-(5-methyl-1H-pyrazol-3-yl)pyrimidine-4,6-diamine] | 5.00 to 6.00 | –
25 | ≥ 7.00 | – | Cc1cc(Nc2cc(NC3CCOCC3)nc(-c3cc(F)ccc3F)n2)n[nH]1 [Example 185, 2-(2,5-difluorophenyl)-N^4-(5-methyl-1H-pyrazol-3-yl)-N^6-(tetrahydro-2H-pyran-4-yl)pyrimidine-4,6-diamine] | 5.00 to 6.00 | –
26 | ≥ 7.00 | – | Cc1cc(Nc2cc(N3CCN(C)CC3)nc(-c3cccc(OCc4ccccc4)c3)n2)n[nH]1 [Example 188, 2-(3-(benzyloxy)phenyl)-N-(5-methyl-1H-pyrazol-3-yl)-6-(4-methylpiperazin-1-yl)pyrimidin-4-amine] | 5.00 to 6.00 | –
27 | ≥ 7.00 | – | Cc1cc(Nc2cc(N3CCN(C)CC3)nc(-c3cccc(OC(F)(F)F)c3)n2)n[nH]1 [Example 192, N-(5-methyl-1H-pyrazol-3-yl)-6-(4-methylpiperazin-1-yl)-2-(3-(trifluoromethoxy)phenyl)pyrimidin-4-amine] | 5.00 to 6.00 | –
28 | ≥ 7.00 | – | Cc1ccc(F)c(-c2nc(Nc3cc(C)[nH]n3)cc(N3CCN(C)CC3)n2)c1 [Example 193, 2-(2-fluoro-5-methylphenyl)-N-(5-methyl-1H-pyrazol-3-yl)-6-(4-methylpiperazin-1-yl)pyrimidin-4-amine] | 5.00 to 6.00 | –
29 | – | ≥ 6.00 | Cc1cc(Nc2cc(N3CCN(C)CC3)nc(-c3cc(F)ccc3C)n2)n[nH]1 [Example 196, 2-(5-fluoro-2-methylphenyl)-N-(5-methyl-1H-pyrazol-3-yl)-6-(4-methylpiperazin-1-yl)pyrimidin-4-amine] | – | ≤ 1000
